pIC50: −log10 of the molar value. “Also recorded” adds a separate entry of the source. Like-named read-outs stand apart in the source and are kept apart here.
Experiments:
[1] = tested on: rabbit platelet aggregation; assay: Platelet aggregate dispersing effect; type: cell-based; conditions: ADP- and PAF-induced; result in words (FIG. 5)
Method: Fresh blood samples were collected from male Japanese white rabbits weighing 2-3 kg. Blood was anticoagulated with citric acid (1 ml 3.8% citric acid solution +9 ml blood). These samples were centrifuged at room temperature for 20 min at 200×g to obtained platelet-rich plasma (PRP). Furthermore, the supernatant liquid was centrifuged for 10 min at 1500×g to obtained platelet-poor plasma (PPP). Aggregation of platelests was measured photometrically in a Nihon Kohden hema tracer equipped with a mechanical stirring device and with a chart record. At this time, the chart recorder was calibrated as follows: the light transmission obtained with PPP was set as 100% transmission and the optical density of PRP was taken as 0% transmission. Maximal aggregation, i.e. the maximal change in optical density of the primary wave calculated in percent light transmission. From the study, it was determined that ADP, Ap3A, PAF(platelet activating factor) and collagen induced maximal aggregations at a concentration of 1×10^-5 M, 1×10^-4 M, 1.9×10^-7 M and 5 μg/kg, respectively. In the following studies, these aggregating agents were used at maximal dose. The effect of Ap4A on platelet aggregation by ADP and Ap3A were tested. In this time, Ap4A was pretreated for 1 or 10 min before the addition of aggregating agents. […]

[2] = tested on: rabbit platelet aggregation; assay: Inhibitory effect on rabbit platelet aggregation; type: cell-based; conditions: for pIC50: Oryctolagus cuniculus, Platelet
Method: Fresh blood samples were collected from male Japanese white rabbits weighing 2-3 kg. Blood was anticoagulated with citric acid (1 ml 3.8% citric acid solution +9 ml blood). These samples were centrifuged at room temperature for 20 min at 200×g to obtained platelet-rich plasma (PRP). Furthermore, the supernatant liquid was centrifuged for 10 min at 1500×g to obtained platelet-poor plasma (PPP). Aggregation of platelests was measured photometrically in a Nihon Kohden hema tracer equipped with a mechanical stirring device and with a chart record. At this time, the chart recorder was calibrated as follows: the light transmission obtained with PPP was set as 100% transmission and the optical density of PRP was taken as 0% transmission. Maximal aggregation, i.e. the maximal change in optical density of the primary wave calculated in percent light transmission. From the study, it was determined that ADP, Ap3A, PAF(platelet activating factor) and collagen induced maximal aggregations at a concentration of 1×10^-5 M, 1×10^-4 M, 1.9×10^-7 M and 5 μg/kg, respectively. In the following studies, these aggregating agents were used at maximal dose. The effect of Ap4A on platelet aggregation by ADP and Ap3A were tested. In this time, Ap4A was pretreated for 1 or 10 min before the addition of aggregating agents. Also, after the platelet aggregation was induced by addition of ADP, PAF or collagen to PRP, the platelet aggregate dispersing effect of Ap4A was tested.

rabbit erythrocytes = assay: Inhibitory effect on rabbit erythrocyte crenation induced by A23187; type: cell-based; conditions: for Crenation: x ± SE; for inhibition of A23187-induced erythrocyte crenation: result in words
Method: Fresh blood was collected from Japanese white rabbits weighing 2-3 kg. Blood samples were anticoagulated with citric acid (1 ml 3.8% Citric acid solution+10 ml blood). These samples were centrifuged at room temperature for 15 min at 1100 rpm. After centrifugation of the defibrinated blood, the upper cell layers were discarded. The erythrocytes (pellet) were washed 4 times in a medium containing; 56.6 mM Tris-HCl, pH 7.6, 100 mM NaCl, 4.6 mM KCl,0.64 mM MgCl2. The erythrocytes were preincubated with saline solution or Ap4 A at 37° C for 10min and then A23187 1×10^-6 M and CaCl2 5×10^-7 M were added to the Mixture. After incubation at 37° C. for 20 min, the reaction mixture was centrifugated at 1000 rpm for 10 min. The precipitation was fixed by addition of 0.1M cacodylate buffer containing 0.22M sucrose. The number of transforming erythrocytes was counted using a microscope.

blood pressure = assay: Gradual hypotension under halothane or urethane + α-chloralose anesthesia; type: in vivo; conditions: halothane anesthesia; urethane (0.5 g/kg) + α-chloralose (80 mg/kg) anesthesia; words
rats [3] = assay: Gradual hypotension during anesthesia in rats; type: in vivo, male SD rats; conditions: rat
Method: Male SD rats (Charles River Japan Inc.) were anesthetized with intravenous thiopental 50 mg/kg as a bolus, followed by 1% enflurane in air.
A femoral artery was catheterized to monitor the blood pressure and heart rate, while a femoral vein was catheterized for the administration of each of the test drugs.
(§1) The control values were obtained before the administration of each test drug. Each test drug was then administered using a syringe in a dose-dependent manner for 15 minutes. The percentage (%) of the decrease of blood pressure was determined when stabilized. Changes in heart rate (H.R.) at the administration of each test drug were measured. Furthermore,the recovery of mean blood pressure after intravenous infusion of each test drug was also determined from the decrease in heart rate and the blood pressure at a maximum dose of each test drug.

[4] = tested on: rabbit mesenteric arteries; conditions: words; cited from earlier work
rats [5] = assay: Recovery of blood pressure after gradual hypotension in rats; type: in vivo, male SD rats; conditions: rat
Method: FIG. 1 is a graph showing the recovery of the blood pressure of rats anesthetized with enflurane with time, when each of Ap4A ( ), PG E1 ( ) and nitroglycerin ( ) was used as a test drug to attain gradual hypotension, with the blood pressure before the administration of each test drug being set 100% for reference.
The recovery of blood pressure after gradual hypotension by use of each of Ap4A, PG E1 and nitroglycerin was also tested.
as §1
In a test similar to the above, each of Ap4A, PG E1, and nitroglycerin was administered to rats, so that about 65% fall in blood pressure, about 55% fall in blood pressure, and about 35% fall in blood pressure were stepwise attained. With respect to each agent, the recovery of blood pressure was tested.

[6] = tested on: human platelet-aggregation; conditions: words; cited from earlier work
[7] = enflurane, infusion 1 μg/kg/min
[8] = enflurane, infusion 3 μg/kg/min
[9] = enflurane, infusion 10 μg/kg/min
[10] = enflurane, infusion 30 μg/kg/min
[11] = enflurane, infusion 100 μg/kg/min
[12] = enflurane, infusion 300 μg/kg/min
[13] = enflurane, infusion 1000 μg/kg/min
[14] = enflurane, infusion 3000 μg/kg/min

In the case of Nc1ncnc2c1ncn2[C@@H]1O[C@H](COP(=O)(O)OP(=O)(O)OP(=O)(O)OP(=O)(O)OC[C@H]2O[C@@H](n3cnc4c(N)ncnc43)[C@H](O)[C@@H]2O)[C@@H](O)[C@H]1O [Ap4A, diadenosine 5',5'"-p^1,p^4 -tetraphosphate], the “platelet aggregate dispersing effect” value [1] was “Both ADP- and PAF-induced platelet aggregations were dispersed; also recorded: dispersing aggregated lumps formed by PAF (platelet activating factor) and ADP”, the “time to submaximal/maximum anti-platelet aggregating effect” value [2] was ≤ 1 min and the “inhibition of platelet aggregation” value ([2]; ADP- and Ap3A-induced, result in words) was “Both ADP- and Ap3A-induced platelet aggregations were inhibited; also recorded: inhibits ADP-induced and Ap3A (diadenosine 5', 5'"-p^1,p^4 -triphosphate)-induced platelet-aggregation reactions”. It also gave a pIC50 ([2]; read-out: Ap4A IC50, ADP (1 × 10^-5 M) induced, 1 min. pretreatment) of 3.69, a pIC50 ([2]; read-out: Ap4A IC50, ADP (1 × 10^-5 M) induced, 10 min. pretreatment) of 4.38 and a pIC50 ([2]; read-out: Ap4A IC50, Ap3A (1 × 10^-4 M) induced, 1 min. pretreatment) of 5.04. The pIC50 ([2]; read-out: Ap4A IC50, Ap3A (1 × 10^-4 M) induced, 10 min. pretreatment) was 4.30, the “time to substantially maximum inhibitory effect” value ([2]; result in words) was “substantially maximum effect is obtained within one minute” and the Crenation (rabbit erythrocytes; 10^-3 M, P < 0.01 vs control) was 19.2 ± 9.1%. For the same molecule, the Crenation (rabbit erythrocytes; 10^-4 M, P < 0.05 vs control) was 37.0 ± 6.4%, the Crenation (rabbit erythrocytes; 10^-5 M) was 49.1 ± 3.9% and the inhibition at 1000 µM (rabbit erythrocytes; Oryctolagus cuniculus, Erythrocyte, 10^-3 M) was 66.1%. The inhibition at 100 µM (rabbit erythrocytes; Oryctolagus cuniculus, Erythrocyte, 10^-4 M) was 34.6%, the inhibition at 10 µM (rabbit erythrocytes; Oryctolagus cuniculus, Erythrocyte, 10^-5 M) was 13.3% and the pIC50 (rabbit erythrocytes; Oryctolagus cuniculus, Erythrocyte, A23187-induced crenation) was 3.52. The “inhibition of A23187-induced erythrocyte crenation” value (rabbit erythrocytes) was “significant inhibitory effect”, the “inhibition of A23187-induced erythrocyte crenation” value (rabbit erythrocytes; listed as Ap4 A) was “A23187-induced rabbit erythrocyte crenation was inhibited” and the gradual hypotensive effect (blood pressure) was “almost the same gradual hypotensive effect”. For the same molecule, the “administration that gradually decreased blood pressure” value (rats [3]; enflurane) was ≥ 10 µg/kg/min, the “fall in blood pressure” value (rats [3]; enflurane, 300 μg/kg/min) was “about 40%” and the “fall in blood pressure” value (rats [3]; enflurane, 1000 μg/kg/min or more) was ≥ 60%. The “Blood Pressure (Δ%)” value (rats [3]; [7]) was 0%, the “Heart Rate (Δ%)” value (rats [3]; [7]) was 0% and the “Blood Pressure (Δ%)” value (rats [3]; [8]) was 0%. For the same molecule, the “Heart Rate (Δ%)” value (rats [3]; [8]) was 0%, the “Blood Pressure (Δ%)” value (rats [3]; [9]) was -4.7 ± 0.6% and the “Heart Rate (Δ%)” value (rats [3]; [9]) was 1.3 ± 0.6%. The “Blood Pressure (Δ%)” value (rats [3]; [10]) was -10.2 ± 1.1%, the “Heart Rate (Δ%)” value (rats [3]; [10]) was 2.7 ± 0.8% and the “Blood Pressure (Δ%)” value (rats [3]; [11]) was -22.9 ± 1.2%. For the same molecule, the “Heart Rate (Δ%)” value (rats [3]; [11]) was 2.4 ± 1.0%, the “Blood Pressure (Δ%)” value (rats [3]; [12]) was -43.5 ± 2.2% and the “Heart Rate (Δ%)” value (rats [3]; [12]) was -6.6 ± 1.2%. For the same molecule, the “Blood Pressure (Δ%)” value (rats [3]; [13]) was -58.6 ± 1.8%, the “Heart Rate (Δ%)” value (rats [3]; [13]) was -15.9 ± 1.9% and the “Blood Pressure (Δ%)” value (rats [3]; [14]) was -65.8 ± 1.2%. For the same molecule, the “Heart Rate (Δ%)” value (rats [3]; [14]) was -24.9 ± 2.4%, the “decrease of heart rate” value (rats [3]; enflurane, result in words) was “A significant decrease of heart rate was observed at about 60% fall in blood pressure” and the “stability of hypotensive effect at each dose” value (rats [3]; result in words) was “did not significantly change the blood pressure attained by each dose”. For the same molecule, the vasodilating effect [4] was “a vasodilating effect of rabbit mesenteric arteries”, the “recovered blood pressure (before administration = 100%)” value (rats [5]; 1 minute) was “about 70%” and the “recovered blood pressure (before administration = 100%)” value (rats [5]; 5 minutes) was “about 90%”. The “recovered blood pressure (before administration = 100%)” value (rats [5]; 10 minutes) was 100%, the “fall in blood pressure attained before recovery” value (rats [5]; stepwise) was “about 65%” and the “rapidness of the recovery of blood pressure” value (rats [5]; order in words) was “Ap4A>PG E1 >nitroglycerin”. The rebound hypertension (rats [5]; result in words) was “without rebound hypertension” and the “ADP-induced human platelet-aggregation inhibitory effect” value [6] was “ADP-induced human platelet-aggregation inhibitory effect”.
